Measurements published in PubChem BioAssay (NCI).
“And” between values parts separate entries of the source, which are not always exact repeats. Equal values may be shown once.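 These data come from cells grown in 96-well plates and exposed to compound for 48 hours at five concentrations. Abbreviation: GI50, concentration required for 50% inhibition of growth. TGI is the concentration that stops growth completely.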

What was measured:
Assay in all cases: NCI anticancer screen, dose series, 48 h
[1] = test system: T-47D breast
[2] = test system: SW-620 colon
[3] = test system: MOLT-4 leukemia
[4] = test system: PC-3 prostate
[5] = test system: U251 CNS
[6] = test system: A498 renal
[7] = test system: SNB-19 CNS
[8] = test system: UACC-62 melanoma
[9] = test system: SNB-75 CNS
[10] = test system: SK-MEL-28 melanoma
[11] = test system: UACC-257 melanoma
[12] = test system: K-562 leukemia
[13] = test system: SF-268 CNS
[14] = test system: RPMI-8226 leukemia
[15] = test system: DU-145 prostate
[16] = test system: NCI/ADR-RES ovarian
[17] = test system: RXF 393 renal
[18] = test system: OVCAR-3 ovarian
[19] = test system: HCT-15 colon
[20] = test system: NCI-H460 lung
[21] = test system: HOP-62 NSCLC
[22] = test system: HCT-116 colon
[23] = test system: NCI-H23 lung
[24] = test system: SN12C renal
[25] = test system: SK-MEL-5 melanoma
[26] = test system: A549 NSCLC
[27] = test system: EKVX NSCLC
[28] = test system: M14 melanoma
[29] = test system: OVCAR-4 ovarian
[30] = test system: SF-295 CNS
[31] = test system: ACHN renal
[32] = test system: HCC-2998 colon
[33] = test system: SR leukemia
[34] = test system: OVCAR-5 ovarian
[35] = test system: MDA-N
[36] = test system: COLO 205 colon
[37] = test system: CCRF-CEM leukemia
[38] = test system: NCI-H226 lung
[39] = test system: LOX IMVI melanoma
[40] = test system: OVCAR-8 ovarian
[41] = test system: HS 578T breast
[42] = test system: HOP-92 NSCLC
[43] = test system: IGROV1 ovarian
[44] = test system: CAKI-1 renal
[45] = test system: SF-539 CNS
[46] = test system: TK-10 renal
[47] = test system: MCF7 breast
[48] = test system: BT-549 breast
[49] = test system: SK-MEL-2 melanoma
[50] = test system: NCI-H522 lung
[51] = test system: SK-OV-3 ovarian
[52] = test system: MDA-MB-435
[53] = test system: MALME-3M melanoma
[54] = test system: MDA-MB-231 breast
[55] = test system: HT29 colon
[56] = test system: KM12 colon
[57] = test system: 786-0 renal
[58] = test system: UO-31 renal
[59] = test system: HL-60(TB) leukemia

C=CCN1C(=O)/C(=C/c2ccc(Cl)cc2)N=C1SC1OC(COC(C)=O)C(OC(C)=O)C(OC(C)=O)C1OC(C)=O (stereo unspecified)
TGI [1]: 36.9 µM
GI50 [2]: > 59.6 µM and 11.1 µM
TGI [2]: > 100 µM
TGI [3]: > 100 µM and 43.2 µM
GI50 [4]: 9.17 µM and 31 µM
TGI [4]: > 100 µM
GI50 [5]: 5.23 µM and 30.1 µM
TGI [5]: 19.7 µM and > 100 µM
GI50 [6]: 80.5 µM and 31.1 µM
TGI [6]: > 100 µM and 73.7 µM
TGI [7]: 87.6 µM
GI50 [8]: 10.4 µM and 21.5 µM
TGI [8]: 35.7 µM and > 100 µM
GI50 [9]: 4.11 µM and 25.9 µM
TGI [9]: 13.8 µM and 81.5 µM
TGI [10]: > 100 µM
TGI [11]: 45.2 µM and 74.4 µM
GI50 [12]: > 61.7 µM and 13.1 µM
TGI [12]: > 100 µM and 76.3 µM
TGI [13]: 5.46 µM
GI50 [14]: 11.2 µM and 5.19 µM
TGI [14]: > 100 µM and 46.8 µM
TGI [15]: > 100 µM
GI50 [16]: 11.5 µM and 31.7 µM
TGI [16]: > 100 µM
GI50 [17]: 4.94 µM and 11.6 µM
TGI [17]: 19.5 µM and 47.5 µM
TGI [18]: > 100 µM
GI50 [19]: 41.1 µM and 16 µM
TGI [19]: > 100 µM
GI50 [20]: 8.11 µM and 31.5 µM
TGI [20]: 36.2 µM and > 100 µM
GI50 [21]: 5.66 µM and 21.9 µM
TGI [21]: 20.6 µM and 62.6 µM
TGI [22]: 87.5 µM
TGI [23]: > 100 µM and 76.2 µM
TGI [24]: > 100 µM
TGI [25]: > 100 µM
TGI [26]: 65.7 µM
TGI [27]: > 100 µM
TGI [28]: > 100 µM
GI50 [29]: 4.14 µM and 16.7 µM
TGI [29]: 28.2 µM and 67.1 µM
GI50 [30]: 18.2 µM and 49.9 µM
TGI [30]: 54 µM and > 100 µM
GI50 [31]: 14.5 µM and 37.4 µM
TGI [31]: > 100 µM
GI50 [32]: 49.7 µM and 18.9 µM
TGI [32]: > 100 µM and 42.8 µM
TGI [33]: > 100 µM and 36.6 µM
GI50 [34]: > 66.9 µM and 32.7 µM
TGI [34]: > 100 µM
TGI [35]: > 100 µM
GI50 [36]: > 89.5 µM and 31.9 µM
TGI [36]: > 100 µM
TGI [37]: > 100 µM
GI50 [38]: 9.63 µM and 21.9 µM
TGI [38]: 24.5 µM and 78 µM
TGI [39]: > 100 µM and 89.8 µM
TGI [40]: 36 µM and 81.4 µM
TGI [41]: 9.79 µM
GI50 [42]: 22 µM and 3.62 µM
TGI [42]: 66.5 µM and 31.4 µM
TGI [43]: > 100 µM
TGI [44]: 28.3 µM and > 100 µM
TGI [45]: > 100 µM
TGI [46]: > 100 µM
TGI [47]: > 100 µM
TGI [48]: > 100 µM and 84.1 µM
GI50 [49]: 12.6 µM and 30.1 µM
TGI [49]: 34.6 µM and 95.8 µM
TGI [50]: 17.8 µM and 42.9 µM
TGI [51]: > 61.8 µM and 65.6 µM
TGI [52]: > 66.3 µM and 64.8 µM
TGI [53]: 15 µM and > 100 µM
GI50 [54]: 7.84 µM and 23.6 µM
TGI [54]: 43.6 µM and 80.9 µM
TGI [55]: > 100 µM
TGI [56]: > 100 µM
TGI [57]: 12.6 µM

COC(=O)c1cc2c3c(c(C(C)=O)c(OC)c2[nH]1)NCC3
TGI [1]: > 50 µM
TGI [2]: > 50 µM
TGI [3]: > 50 µM
TGI [4]: > 50 µM
TGI [5]: > 50 µM
TGI [6]: > 50 µM
TGI [7]: > 50 µM
TGI [8]: > 50 µM
TGI [9]: > 50 µM
TGI [11]: > 50 µM
TGI [12]: > 50 µM
TGI [13]: > 50 µM
TGI [14]: > 50 µM
TGI [15]: > 50 µM
TGI [58]: > 50 µM
TGI [16]: > 50 µM
TGI [17]: > 50 µM
TGI [18]: > 50 µM
TGI [19]: > 50 µM
TGI [20]: > 50 µM
TGI [21]: > 50 µM
TGI [22]: > 50 µM
TGI [23]: > 50 µM
TGI [24]: > 50 µM
TGI [25]: > 50 µM
TGI [27]: > 50 µM
TGI [28]: > 50 µM
TGI [30]: > 50 µM
TGI [31]: > 50 µM
TGI [33]: > 50 µM
TGI [34]: > 50 µM
TGI [35]: > 50 µM
TGI [36]: > 50 µM
TGI [37]: > 50 µM
TGI [38]: > 50 µM
TGI [39]: > 50 µM
TGI [40]: > 50 µM
TGI [41]: > 50 µM
TGI [59]: > 50 µM
TGI [43]: > 50 µM
TGI [44]: > 50 µM
TGI [45]: > 50 µM
TGI [46]: > 50 µM
TGI [47]: > 50 µM
TGI [48]: > 50 µM
TGI [49]: > 50 µM
TGI [51]: > 50 µM
TGI [52]: > 50 µM
TGI [53]: > 50 µM
TGI [54]: > 50 µM
TGI [55]: > 50 µM
TGI [56]: > 50 µM
TGI [57]: > 50 µM

CC(C)CC1c2[nH]c3ccccc3c2C[C@H]2C(=O)NC(COC(C)(C)C)C(=O)N12 (stereo partly specified)
TGI [1]: 43.4 µM
TGI [2]: > 100 µM
TGI [3]: 57.9 µM
TGI [4]: 55.1 µM
TGI [5]: 41 µM
TGI [6]: > 100 µM
TGI [7]: > 100 µM
TGI [8]: 49.5 µM
TGI [10]: > 100 µM
TGI [11]: 39.3 µM
TGI [12]: 92.7 µM
TGI [13]: 57.5 µM
TGI [14]: 58 µM
TGI [15]: > 100 µM
TGI [58]: > 100 µM
TGI [16]: 56.7 µM
TGI [17]: 41 µM
TGI [18]: 16.3 µM
TGI [19]: 80.2 µM
TGI [21]: 79.3 µM
TGI [22]: 37.9 µM
TGI [23]: 91.3 µM
TGI [24]: 47.9 µM
TGI [25]: 47.4 µM
TGI [26]: > 100 µM
TGI [27]: 71.7 µM
TGI [28]: 46.7 µM
TGI [29]: > 100 µM
TGI [30]: 35 µM
TGI [31]: 88.4 µM
TGI [33]: 46.2 µM
TGI [34]: 54.8 µM
TGI [35]: 51.8 µM
TGI [36]: 38.8 µM
TGI [38]: 93 µM
TGI [39]: 34.7 µM
TGI [40]: > 100 µM
TGI [41]: 37 µM
TGI [59]: 53.4 µM
TGI [42]: 74.7 µM
TGI [43]: 63.1 µM
TGI [44]: 79.5 µM
TGI [46]: 56.3 µM
TGI [47]: > 100 µM
TGI [48]: 60.9 µM
TGI [49]: 38.8 µM
TGI [50]: 35.4 µM
TGI [51]: > 100 µM
TGI [52]: 39.9 µM
TGI [53]: 48.2 µM
TGI [54]: 38.8 µM
TGI [55]: 38.3 µM
TGI [56]: 80.2 µM
TGI [57]: 98.5 µM

COC(=O)C(Cc1ccccc1)NC(=O)CCCNC(=O)OCc1ccccc1 (stereo unspecified)
TGI [1]: > 100 µM
TGI [2]: > 100 µM
TGI [3]: > 100 µM
TGI [4]: > 100 µM
TGI [5]: > 100 µM
TGI [7]: > 100 µM
TGI [8]: > 100 µM
TGI [9]: > 100 µM
TGI [10]: > 100 µM
TGI [12]: > 100 µM
TGI [13]: > 100 µM
TGI [14]: > 100 µM
TGI [15]: > 100 µM
TGI [58]: > 100 µM
TGI [16]: > 100 µM
TGI [18]: > 100 µM
TGI [19]: > 100 µM
TGI [20]: > 100 µM
TGI [21]: > 100 µM
TGI [22]: > 100 µM
TGI [23]: > 100 µM
TGI [24]: > 100 µM
TGI [25]: 46.8 µM
TGI [26]: > 100 µM
TGI [27]: > 100 µM
TGI [28]: 32.5 µM
TGI [29]: > 100 µM
TGI [30]: > 100 µM
TGI [31]: > 100 µM
TGI [32]: > 100 µM
TGI [33]: > 100 µM
TGI [34]: > 100 µM
TGI [35]: > 100 µM
TGI [36]: > 100 µM
TGI [37]: > 100 µM
TGI [38]: > 100 µM
TGI [39]: > 100 µM
TGI [40]: > 100 µM
TGI [41]: > 100 µM
TGI [59]: > 100 µM
TGI [42]: > 100 µM
TGI [43]: > 100 µM
TGI [44]: > 100 µM
TGI [46]: > 100 µM
TGI [47]: > 100 µM
TGI [48]: > 100 µM
TGI [50]: > 100 µM
TGI [51]: > 100 µM
TGI [52]: > 100 µM
TGI [53]: 82.7 µM
TGI [54]: > 100 µM
TGI [55]: > 100 µM
TGI [56]: > 100 µM
TGI [57]: > 100 µM
